The values that follow come from JP2022155560A, “スガマデクスの光分解抑制方法” (Fuji Pharma Co Ltd, priority 2021, dated 2022).

The structures appear in SMILES notation.

The nature of data set [1]: Formation of sugammadex photodegradant (disulfide, printed ジスルフィド体) on light irradiation (Example 2, HPLC). In kind it is physicochemical. The settings on record: after light irradiation, n=3.
The nature of data set [2]: Photostability of sugammadex sodium solution in glass containers with or without light-cutting film (Example 1, HPLC). The settings on record: for total amount of substances other than sugammadex: n=3. In kind it is physicochemical.
Where [3] appears, read: after light irradiation (1,200,000 lux·h, 280 W·h/m2), UVcut 500 film compared with UVcut 400 film.
[4] abbreviates: after light irradiation (1,200,000 lux·h, 280 W·h/m2), film-wrapped samples (UVcut 400 or UVcut 500), compared with no film wrapping.

For the compound `O=C([O-])CCSC[C@H]1O[C@@H]2O[C@H]3[C@H](O)[C@@H](O)[C@@H](O[C@H]4[C@H](O)[C@@H](O)[C@@H](O[C@H]5[C@H](O)[C@@H](O)[C@@H](O[C@H]6[C@H](O)[C@@H](O)[C@@H](O[C@H]7[C@H](O)[C@@H](O)[C@@H](O[C@H]8[C@H](O)[C@@H](O)[C@@H](O[C@H]9[C@H](O)[C@@H](O)[C@@H](O[C@H]1[C@H](O)[C@H]2O)O[C@@H]9CSCCC(=O)[O-])O[C@@H]8CSCCC(=O)[O-])O[C@@H]7CSCCC(=O)[O-])O[C@@H]6CSCCC(=O)[O-])O[C@@H]5CSCCC(=O)[O-])O[C@@H]4CSCCC(=O)[O-])O[C@@H]3CSCCC(=O)[O-].[Na+].[Na+].[Na+].[Na+].[Na+].[Na+].[Na+].[Na+]` [スガマデクス, octakis(6-S-(2-carboxyethyl)-6-thio)cyclomaltooctaose octasodium salt], the “formation of sugammadex disulfoxide (スガマデクスのジスルフィド体 in the source)” value in data set [1] (light up to 400 nm cut, relative to sample without film wrapping) is “フィルム包装なしのサンプルの半分程度”. In addition, in data set [1] (light up to 500 nm cut), the “formation of sugammadex disulfoxide (スガマデクスのジスルフィド体 in the source)” value is “ほとんど生成されていなかった”. Further, in data set [2] (setting [3]), the “effect of suppressing increase of photodegradation products” value was “顕著に高かった” and the purity of sugammadex result was “純度が高く”. Also, in data set [2] (setting [4]), the “increase in total amount of substances other than sugammadex” value is reported as “増大が抑えられており” and the “residual rate of sugammadex” value is listed as “残存率が高かった”. The “total amount of substances other than sugammadex” value in data set [2] (after light irradiation (1,200,000 lux·h, 280 W·h/m2), no film wrapping) was found to be 5.12%. The “total amount of substances other than sugammadex” value in data set [2] (before light irradiation, no film wrapping, 100 mg/mL aqueous solution, pH 7-8) turned out to be 2.14%. Moreover, the photodegradation of sugammadex result in data set [2] (chromatograms before vs after light irradiation, no film wrapping) is reported as “光照射により分解されたことが確認された”.
